Results as given in patent publication EP2646421B1, “7-NITRO-5-PHENYL-1-(PYRROLIDIN-1-YLMETHYL)-1H-BENZO[E][1,4]DIAZEPIN-2(3H)-ONE AND OTHER BENZODIAZEPINE DERIVATIVES” (Pignataro, Giuseppe, priority 2010, dated 2012).
Entries after “also recorded” stand apart in the source; their conditions may differ.

How the values were obtained:
BHK cells = experiment: Mitochondrial dehydrogenase activity (MTT); assay type: cell-based, hamster
NCX2 = target: T1, NCX2 (Rattus norvegicus, UniProt P48768); experiment: Patch-clamp electrophysiology (whole-cell NCX currents), BHK-NCX2 cells; assay type: cell-based; conditions: 10 nM, 10 minutes
T1 construct: expressed in transfected cells
Experimental: To further investigate the effects of this compound on the Na^+/Ca^2+ exchanger activity, we performed electrophysiological experiments on BHK cells stably transfected with each of NCX isoforms (named BHK-NCX1, BHK-NCX2 and BHK-NCX3).
(§1) The activity of NCX was established by means of three different subclones of baby hamsted kidney (BHK) cells that were stably transfected with one of each NCX isoforms, named BHK-NCX1, BHK-NCX2 and BHK-NCX3. These cell lines were grown on plastic dishes in a mix of DMEM and Ham's F12 media (1:1) (Gibco, Invitrogen, MI, Italy) supplemented with 5% fetal bovine serum, 100 U/ml penicillin, and 100 µg/ml streptomycin (Sigma, St. Louis, Missouri, USA). Cells were cultured in a humidified 5% CO2 atmosphere and at the temperature of 37°C.
NCX currents (/NCX) was recorded from BHK wild-type and BHK stably transfected cells with NCX1, NCX2, and NCX3 and all each mutated of single isoforrms by patch-clamp technique in whole-cell configuration. […] Data were acquired and analyzed by use of pClamp software (version 9.0, Molecular Devices). In brief, /NCX was recorded starting from a holding potential of -60 mV up to a short-step depolarization at +60 mV (60 ms) (He et al., 2003; Xiao et al., 2004). […] The current recorded in the descending portion of the ramp (from +60 to -120 mV) was used to plot the current-voltage (I-V) relation curve. […]

NCX3 = target: T2, NCX3 (Rattus norvegicus, UniProt P70549); experiment: Fura-2 AM single-cell microfluorimetry, BHK-NCX3 cells; assay type: cell-based; conditions: 10 nM (Fig. 2)
T2 construct: expressed in transfected cells
Experimental: as §1
NCX activity has been measured considering the variation of intracellular concentrations of Ca^2+ ions ([Ca^2+]i) due to its activation by means of single-cell microfluorimetry. […] In both cases, this probe will produce an emission at 510 nm; the ratio between the two emission relative to 340 and 380 excitation allow to quantify [Ca^2+]i in the time considering the calibration curve previously performed. […]
Briefly, BHK cells wild type and/or BHK trasnsfected with NCX mutants, grown on glass coverslips, were loaded with Fura-2 acetoxymethyl ester (Fura-2AM) (10 µM) for 30 minutes at 37°C in normal Krebs solution containing the following (in mM): 5.5 KCI, 160 NaCl, 1.2 MgCl2, 1.5 CaCl2, 10 glucose, and 10 Hepes-NaOH, pH 7.4. […] Fura-2 fluorescence intensity was measured every 3 seconds. […]

T1 sequence (P48768 21-921): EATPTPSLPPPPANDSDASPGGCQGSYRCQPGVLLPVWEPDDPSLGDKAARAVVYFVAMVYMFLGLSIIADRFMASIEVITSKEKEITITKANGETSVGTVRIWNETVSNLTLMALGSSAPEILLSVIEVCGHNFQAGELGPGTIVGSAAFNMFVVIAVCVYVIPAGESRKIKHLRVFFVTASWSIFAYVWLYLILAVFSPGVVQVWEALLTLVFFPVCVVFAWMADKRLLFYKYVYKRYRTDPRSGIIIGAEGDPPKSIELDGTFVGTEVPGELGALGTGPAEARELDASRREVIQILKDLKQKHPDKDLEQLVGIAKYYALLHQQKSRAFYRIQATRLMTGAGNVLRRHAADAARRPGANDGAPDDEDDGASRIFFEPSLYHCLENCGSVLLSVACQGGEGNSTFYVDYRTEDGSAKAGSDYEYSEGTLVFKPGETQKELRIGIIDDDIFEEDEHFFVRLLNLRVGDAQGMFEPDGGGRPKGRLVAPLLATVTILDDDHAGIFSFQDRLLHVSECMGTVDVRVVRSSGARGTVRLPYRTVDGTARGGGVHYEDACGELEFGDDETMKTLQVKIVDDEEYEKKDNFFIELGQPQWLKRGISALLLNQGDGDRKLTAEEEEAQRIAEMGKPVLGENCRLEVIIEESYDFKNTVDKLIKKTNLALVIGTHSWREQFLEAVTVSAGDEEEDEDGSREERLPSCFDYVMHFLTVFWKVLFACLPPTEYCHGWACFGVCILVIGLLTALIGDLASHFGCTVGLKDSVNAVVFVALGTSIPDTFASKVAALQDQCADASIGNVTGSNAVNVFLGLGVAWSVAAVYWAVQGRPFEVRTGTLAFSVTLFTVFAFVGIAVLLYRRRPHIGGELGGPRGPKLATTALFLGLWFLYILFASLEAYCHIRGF
T2 sequence (P70549 31-927): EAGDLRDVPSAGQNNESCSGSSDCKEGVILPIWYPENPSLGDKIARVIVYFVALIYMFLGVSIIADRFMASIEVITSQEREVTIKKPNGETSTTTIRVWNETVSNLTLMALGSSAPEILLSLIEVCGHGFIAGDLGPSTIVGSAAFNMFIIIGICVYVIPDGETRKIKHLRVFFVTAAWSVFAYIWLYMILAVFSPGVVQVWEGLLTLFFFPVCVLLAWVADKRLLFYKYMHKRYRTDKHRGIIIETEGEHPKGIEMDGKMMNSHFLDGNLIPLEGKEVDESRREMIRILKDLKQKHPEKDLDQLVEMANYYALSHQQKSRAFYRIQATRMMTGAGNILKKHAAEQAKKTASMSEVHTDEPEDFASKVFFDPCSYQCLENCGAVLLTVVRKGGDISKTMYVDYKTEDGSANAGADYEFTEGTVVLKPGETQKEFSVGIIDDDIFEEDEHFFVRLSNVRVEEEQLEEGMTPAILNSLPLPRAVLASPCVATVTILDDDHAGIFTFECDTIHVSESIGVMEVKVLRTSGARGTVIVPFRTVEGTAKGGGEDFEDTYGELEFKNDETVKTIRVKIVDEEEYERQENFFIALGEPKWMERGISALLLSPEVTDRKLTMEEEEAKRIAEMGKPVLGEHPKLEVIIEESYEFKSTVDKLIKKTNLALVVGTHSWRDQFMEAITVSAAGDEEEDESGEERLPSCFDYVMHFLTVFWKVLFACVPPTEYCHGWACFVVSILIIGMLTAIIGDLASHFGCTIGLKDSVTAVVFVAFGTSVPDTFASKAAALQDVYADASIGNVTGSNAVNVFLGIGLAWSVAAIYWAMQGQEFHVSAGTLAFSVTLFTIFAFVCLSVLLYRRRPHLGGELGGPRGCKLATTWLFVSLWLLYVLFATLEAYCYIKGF

SMILES: O=C1CN=C(c2ccccc2)c2cc([N+](=O)[O-])ccc2N1CN1CCCC1 [neurounina-1, 7-nitro-5-phenyl-1-(pyrrolidin-1-ylmethyl)-1H-benzo[e][1,4]diazepin-2(3H)-one]
- non-toxic concentration relative to EC50 (BHK cells; 10 µM versus EC50): ~10.000 times
- mitochondrial activity (BHK cells; 10 µM, 24 hours, BHK cells): did not show any toxic effect; also recorded: did not affect
- increased forward and reverse activity of NCX2 (NCX2): 30%
- activity of Na+/Ca2+ exchange in BHK cells expressing NCX3 (NCX3): did not show any significant difference
